# Laboratory results as given in PubChem BioAssay (NCI).
#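 Method: 48-hour compound exposure of cells in 96-well plates, five concentrations, linear interpolation of endpoints. GI50 is the concentration that inhibits growth by half. TGI marks complete inhibition of growth.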
# Legend:
# Assay in all cases: NCI tumour cell line growth inhibition, 48 h
# MDA-MB-468 breast = tested on: MDA-MB-468 breast
# SW-620 colon = tested on: SW-620 colon
# HOP-62 NSCLC = tested on: HOP-62 NSCLC
# SR leukemia = tested on: SR leukemia
# EKVX NSCLC = tested on: EKVX NSCLC
# UACC-62 melanoma = tested on: UACC-62 melanoma
# 786-0 renal = tested on: 786-0 renal
# A498 renal = tested on: A498 renal
# SN12C renal = tested on: SN12C renal
# SNB-19 CNS = tested on: SNB-19 CNS
# NCI-H522 lung = tested on: NCI-H522 lung
# SNB-75 CNS = tested on: SNB-75 CNS
# SF-539 CNS = tested on: SF-539 CNS
# OVCAR-8 ovarian = tested on: OVCAR-8 ovarian
# SK-MEL-5 melanoma = tested on: SK-MEL-5 melanoma
# DU-145 prostate = tested on: DU-145 prostate
# A549 NSCLC = tested on: A549 NSCLC
# HS 578T breast = tested on: HS 578T breast
# NCI-H460 lung = tested on: NCI-H460 lung
# MOLT-4 leukemia = tested on: MOLT-4 leukemia
# TK-10 renal = tested on: TK-10 renal
# LOX IMVI melanoma = tested on: LOX IMVI melanoma
# MDA-MB-435 = tested on: MDA-MB-435
# PC-3 prostate = tested on: PC-3 prostate
# SK-MEL-2 melanoma = tested on: SK-MEL-2 melanoma
# NCI-H23 lung = tested on: NCI-H23 lung
# IGROV1 ovarian = tested on: IGROV1 ovarian
# OVCAR-3 ovarian = tested on: OVCAR-3 ovarian
# HOP-92 NSCLC = tested on: HOP-92 NSCLC
# K-562 leukemia = tested on: K-562 leukemia
# SK-MEL-28 melanoma = tested on: SK-MEL-28 melanoma
# MALME-3M melanoma = tested on: MALME-3M melanoma
# OVCAR-4 ovarian = tested on: OVCAR-4 ovarian
# SF-295 CNS = tested on: SF-295 CNS
# OVCAR-5 ovarian = tested on: OVCAR-5 ovarian
# UACC-257 melanoma = tested on: UACC-257 melanoma
# RPMI-8226 leukemia = tested on: RPMI-8226 leukemia
# SF-268 CNS = tested on: SF-268 CNS
# HCC-2998 colon = tested on: HCC-2998 colon
# HCT-116 colon = tested on: HCT-116 colon
# CCRF-CEM leukemia = tested on: CCRF-CEM leukemia
# MDA-MB-231 breast = tested on: MDA-MB-231 breast
# ACHN renal = tested on: ACHN renal
# U251 CNS = tested on: U251 CNS
# T-47D breast = tested on: T-47D breast
# RXF 393 renal = tested on: RXF 393 renal
# KM12 colon = tested on: KM12 colon
# UO-31 renal = tested on: UO-31 renal
# MCF7 breast = tested on: MCF7 breast
# M14 melanoma = tested on: M14 melanoma
# CAKI-1 renal = tested on: CAKI-1 renal
# SK-OV-3 ovarian = tested on: SK-OV-3 ovarian
# BT-549 breast = tested on: BT-549 breast
# COLO 205 colon = tested on: COLO 205 colon
# HT29 colon = tested on: HT29 colon
# HCT-15 colon = tested on: HCT-15 colon
# NCI-H226 lung = tested on: NCI-H226 lung
# HL-60(TB) leukemia = tested on: HL-60(TB) leukemia
smiles,measurement,setting,value
O=C1Nc2ccc(Cl)cc2/C1=C/c1cccc(OCc2ccccc2)c1,GI50,MDA-MB-468 breast,6.52 µM
same,TGI,MDA-MB-468 breast,67.5 µM
same,GI50,SW-620 colon,19.9 µM
same,TGI,SW-620 colon,75.9 µM
same,GI50,HOP-62 NSCLC,25.6 µM
same,TGI,HOP-62 NSCLC,79.8 µM
same,GI50,SR leukemia,5.66 µM
same,TGI,SR leukemia,21.8 µM
same,GI50,EKVX NSCLC,20.5 µM
same,TGI,EKVX NSCLC,> 100 µM
same,GI50,UACC-62 melanoma,8.87 µM
same,TGI,UACC-62 melanoma,35.4 µM
same,GI50,786-0 renal,14.1 µM
same,TGI,786-0 renal,32.6 µM
same,GI50,A498 renal,38 µM
same,TGI,A498 renal,> 100 µM
same,GI50,SN12C renal,20.5 µM
same,TGI,SN12C renal,88.8 µM
same,GI50,SNB-19 CNS,17.9 µM
same,TGI,SNB-19 CNS,58.8 µM
same,GI50,NCI-H522 lung,24 µM
same,TGI,NCI-H522 lung,> 100 µM
same,GI50,SNB-75 CNS,16.7 µM
same,TGI,SNB-75 CNS,56 µM
same,GI50,SF-539 CNS,18.5 µM
same,TGI,SF-539 CNS,48.6 µM
same,GI50,OVCAR-8 ovarian,20.2 µM
same,TGI,OVCAR-8 ovarian,61.8 µM
same,GI50,SK-MEL-5 melanoma,28.1 µM
same,TGI,SK-MEL-5 melanoma,> 100 µM
same,GI50,DU-145 prostate,17 µM
same,TGI,DU-145 prostate,45.3 µM
same,GI50,A549 NSCLC,18.3 µM
same,TGI,A549 NSCLC,> 100 µM
same,GI50,HS 578T breast,16 µM
same,TGI,HS 578T breast,72.9 µM
same,GI50,NCI-H460 lung,14 µM
same,TGI,NCI-H460 lung,37.9 µM
same,GI50,MOLT-4 leukemia,4.96 µM
same,TGI,MOLT-4 leukemia,23.6 µM
same,GI50,TK-10 renal,56.1 µM
same,TGI,TK-10 renal,> 100 µM
same,GI50,LOX IMVI melanoma,10.2 µM
same,TGI,LOX IMVI melanoma,40.4 µM
same,GI50,MDA-MB-435,24 µM
same,TGI,MDA-MB-435,98.8 µM
same,GI50,PC-3 prostate,14.9 µM
same,TGI,PC-3 prostate,82 µM
same,GI50,SK-MEL-2 melanoma,31.2 µM
same,TGI,SK-MEL-2 melanoma,> 100 µM
same,GI50,NCI-H23 lung,22 µM
same,TGI,NCI-H23 lung,> 100 µM
same,GI50,IGROV1 ovarian,12.3 µM
same,TGI,IGROV1 ovarian,61.2 µM
same,GI50,OVCAR-3 ovarian,12.4 µM
same,TGI,OVCAR-3 ovarian,31.7 µM
same,GI50,HOP-92 NSCLC,2.16 µM
same,TGI,HOP-92 NSCLC,13.4 µM
same,GI50,K-562 leukemia,11 µM
same,TGI,K-562 leukemia,37.8 µM
same,GI50,SK-MEL-28 melanoma,16.5 µM
same,TGI,SK-MEL-28 melanoma,44.3 µM
same,GI50,MALME-3M melanoma,21.1 µM
same,TGI,MALME-3M melanoma,64.7 µM
same,GI50,OVCAR-4 ovarian,11.8 µM
same,TGI,OVCAR-4 ovarian,63.2 µM
same,GI50,SF-295 CNS,37 µM
same,TGI,SF-295 CNS,> 100 µM
same,GI50,OVCAR-5 ovarian,27.5 µM
same,TGI,OVCAR-5 ovarian,> 100 µM
same,GI50,UACC-257 melanoma,53.8 µM
same,TGI,UACC-257 melanoma,> 100 µM
same,GI50,RPMI-8226 leukemia,7.46 µM
same,TGI,RPMI-8226 leukemia,36.7 µM
same,GI50,SF-268 CNS,14.6 µM
same,TGI,SF-268 CNS,49.4 µM
same,GI50,HCC-2998 colon,41.2 µM
same,TGI,HCC-2998 colon,> 100 µM
same,GI50,HCT-116 colon,10.7 µM
same,TGI,HCT-116 colon,> 100 µM
same,GI50,CCRF-CEM leukemia,11.2 µM
same,TGI,CCRF-CEM leukemia,32.1 µM
same,GI50,MDA-MB-231 breast,15.3 µM
same,TGI,MDA-MB-231 breast,37.9 µM
same,GI50,ACHN renal,15 µM
same,TGI,ACHN renal,37.3 µM
same,GI50,U251 CNS,14.8 µM
same,TGI,U251 CNS,55.4 µM
same,GI50,T-47D breast,16.1 µM
same,TGI,T-47D breast,> 100 µM
same,GI50,RXF 393 renal,18.4 µM
same,TGI,RXF 393 renal,95.9 µM
same,GI50,KM12 colon,20.1 µM
same,TGI,KM12 colon,> 100 µM
same,GI50,UO-31 renal,7.91 µM
same,TGI,UO-31 renal,> 100 µM
same,GI50,MCF7 breast,3.9 µM
same,TGI,MCF7 breast,75.1 µM
same,GI50,M14 melanoma,19.5 µM
same,TGI,M14 melanoma,> 100 µM
same,GI50,CAKI-1 renal,10.8 µM
same,TGI,CAKI-1 renal,32 µM
same,GI50,SK-OV-3 ovarian,59 µM
same,TGI,SK-OV-3 ovarian,> 100 µM
same,GI50,BT-549 breast,14.3 µM
same,TGI,BT-549 breast,66.1 µM
same,GI50,COLO 205 colon,37.4 µM
same,TGI,COLO 205 colon,> 100 µM
same,GI50,HT29 colon,37.8 µM
same,TGI,HT29 colon,> 100 µM
same,GI50,HCT-15 colon,9.4 µM
same,TGI,HCT-15 colon,94.6 µM
same,GI50,NCI-H226 lung,14.1 µM
same,TGI,NCI-H226 lung,84.6 µM
same,GI50,HL-60(TB) leukemia,13.3 µM
same,TGI,HL-60(TB) leukemia,57.8 µM
ClC(Cl)c1nc(-c2ccccc2)n2nc(-c3ccccc3)cc2n1,GI50,MDA-MB-468 breast,0.287 µM
same,TGI,MDA-MB-468 breast,1.25 µM
O=C(NC1CCCCC1)OCc1c(COC(=O)NC2CCCCC2)c(-c2ccc(Cl)c(Cl)c2)n2c1CCC2,GI50,MDA-MB-468 breast,1.8 µM
same,TGI,MDA-MB-468 breast,10.9 µM
COc1ccc2c(c1)O/C(=C\c1ncc([N+](=O)[O-])n1C)C2=O,GI50,MDA-MB-468 breast,1.33 µM
same,TGI,MDA-MB-468 breast,3.72 µM
COc1cccc(/C=C2\COc3ccc(O)c(O)c3C2=O)c1,GI50,MDA-MB-468 breast,1.15 µM
same,TGI,MDA-MB-468 breast,3.15 µM
CCCC(=O)OCC1OC(n2cnc3c(=S)nc(N)[nH]c32)C(OC(=O)CCC)C1OC(=O)CCC (stereo not drawn),GI50,MDA-MB-468 breast,0.332 µM
same,TGI,MDA-MB-468 breast,2.67 µM
COc1ccc(C2=C(c3cn(C)c4ccccc34)C(=O)OC2)cc1OC,GI50,MDA-MB-468 breast,1.65 µM
same,TGI,MDA-MB-468 breast,> 100 µM
